Where two headings read alike, the source gives them in different places.
What was measured:
PC-3 cells = assay: PC-3 cell viability analysis (MTT); assay type: cell-based, human
Method: Cell Culture PC-3 (p53−/−) human androgen-nonresponsive prostate cancer cells were purchased from the American […] (Manassas, Va.). Cells were cultured in RPMI 1640 medium (Gibco, Grand Island, N.Y.) supplemented with 10% fetal bovine serum (FBS; Gibco) at 37° C. in a humidified incubator containing 5% CO2.
Cell viability analysis The effect of 4-[5-(4-methylphenyl)-3-(trifluoromethyl)-1H-pyrazol-1-yl]benzenesulfonamide and its derivatives on PC-3 cell viability was assessed by using the MTT {[3-(4,5-dimethylthiazol-2-yl)-2,5-diphenyl-2H-tetrazolium bromide]} assay in six replicates. Cells were grown in 10% FBS-supplemented RPMI 1640 medium in 96-well, flat bottomed plates for 24 h, and were exposed to various concentrations of compounds 1-36 dissolved in DMSO (final concentration≦0.1%) in 1% serum-containing RPMI 1640 medium for different time intervals. Controls received DMSO vehicle at a concentration equal to that in drug-treated cells. The medium was removed, replaced by 200 μl of 0.5 mg/ml of MTT in 10% FBS-containing RPMI-1640 medium, and cells were incubated in the CO2 incubator at 37° C. for 2 h. Supernatants were removed from the wells, and the reduced MTT dye was solubilized in 200 μL/well DMSO. Absorbance at 570 nm was determined on a plate reader.

recombinant PDK-1 = biological target: T1, recombinant PDK-1 (Homo sapiens, UniProt O15530); assay: PDK-1 kinase activity (Upstate kit, cell-free); assay type: biochemical
T1 construct: purchased Upstate (Lake Placid, N.Y.)
T1 sequence (O15530 1-556): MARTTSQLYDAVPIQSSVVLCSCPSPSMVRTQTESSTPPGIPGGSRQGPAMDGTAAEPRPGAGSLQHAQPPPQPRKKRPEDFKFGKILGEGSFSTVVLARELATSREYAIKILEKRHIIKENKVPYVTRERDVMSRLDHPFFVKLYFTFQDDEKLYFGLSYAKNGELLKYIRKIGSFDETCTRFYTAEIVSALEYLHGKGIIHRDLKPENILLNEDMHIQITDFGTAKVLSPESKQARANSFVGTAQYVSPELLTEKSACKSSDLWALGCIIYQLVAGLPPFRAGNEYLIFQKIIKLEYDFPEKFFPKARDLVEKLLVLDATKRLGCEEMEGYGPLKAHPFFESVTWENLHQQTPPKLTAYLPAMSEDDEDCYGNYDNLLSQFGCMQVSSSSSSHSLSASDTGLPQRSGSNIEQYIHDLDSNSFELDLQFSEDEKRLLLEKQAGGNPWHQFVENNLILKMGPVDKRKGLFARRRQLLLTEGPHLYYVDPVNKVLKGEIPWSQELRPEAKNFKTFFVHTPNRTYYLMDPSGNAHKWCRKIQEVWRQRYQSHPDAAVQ
Method: PDK-1 kinase activity This in vitro assay was performed using a PDK-1 kinase assay kit (Upstate, Lake Placid, N.Y.) according to the vendor's instructions. This cell-free assay is based on the ability of recombinant PDK-1, in the presence of DMSO vehicle or the test agent, to activate its downstream kinase serum- and glucocorticoid-regulated kinase (SGK.) which, in turn, phosphorylates the Akt/SGK-specific peptide substrate RPRAATF with [γ-^32]-ATP. […] The reported values represent the means of two independent determinations.

immunoprecipitated Akt = assay: Direct inhibition of immunoprecipitated Akt kinase activity; assay type: biochemical, human
Akt = assay: Immunoprecipitated Akt kinase assay, drug-treated PC-3 cells (intracellular Akt activation); assay type: cell-based; details: Homo sapiens, PC-3 cells treated 2 h, read-out: IC50 for inhibiting intracellular Akt activation
Method: Immunoprecipitated Akt kinase assay Akt immunoprecipitation was carried out according to a modified, published procedure. PC-3 cells were treated with DMSO vehicle or the test agents at the indicated concentrations for 2 h and then lysed at 4° C. for 1 h in buffer A containing 50 mM Tris-HCl, pH 7.5, 1% Triton X-100, 1 mM EDTA, 1 mM EGTA, 50 mM sodium fluoride, 10 mM sodium β-glycerophosphate. 0.1% 2-mercaptoethanol, 0.1 mM phenylmethylsiilfonyl fluoride, and 1 μg/mL each of aprotinin, pepstatin, and leupeptin. Cell lysates were centrifuged at 10,000 g for 5 min, and the supernatant was treated with anti-Akt at 4° C. for 60 min., followed by protein G-agarose beads for additional 60 min. The immunoprecipitate was used to analyze Akt kinase activity by using the Akt/SGK-specific peptide substrate RPRAATF as described above. Values represented the means of two independent determinations.

phospho-473Ser Akt = assay: Western blot of Akt and phospho-Akt in PC-3 cells; assay type: cell-based, human; details: 5 μM and above
Method: Immunoblotting. The general procedure for the Western blot analysis of Akt and phospho-Akt is described as follows. Cells were washed in PBS, resuspended in SDS sample buffer sonicated by an ultrasonic sonicator for 5 sec, and boiled for 5 min. After brief centrifugation, equivalent protein concentrations from the soluble fractions were resolved in 10% SDS-polyacrylamide gels on a Minigel apparatus, and transferred to a nitrocellulose membrane using a semi-dry transfer cell. The transblotted membrane was washed three times with TBS containing 0.05% Tween 20 (TBST). After blocking with TBST containing 5% nonfat milk for 60 min., the membrane was incubated with the primary antibody at 1:1,000 dilution in TBST-5% low fat milk at 4° C. for 12 h, and was then washed three times with TBST. The membrane was probed with goat anti-rabbit IgG-HRP conjugates (1:1,000) for 1 h at room temperature, and was washed with TBST three times. The immunoblots were visualized by enhanced chemiluminescence.

[1] = inducing apoptotic death in PC-3 cells / PC-3 cell viability, read-out: IC50 PC-3
[2] = inhibiting recombinant PDK-1 kinase activity, read-out: IC50 PDK-1

| Compound | IC50 (PC-3 cells; [1]) [µM] | IC50 (recombinant PDK-1; [2]) [µM] | further results |
| --- | --- | --- | --- |
| 5-(2-Phenanthrenyl)-3-(trifluoromethyl)-4-(1H-tetrazol-5-ylmethylphenyl)-1H-pyrazole [Compound 69] | 27 | 45 |  |
| O/N=C/c1ccc(-n2nc(C(F)(F)F)cc2-c2ccc3c(ccc4ccccc43)c2)cc1 [Compound 65, 4-5[-(2-Phenanthrenyl)-3-(trifluoromethyl)-1H-pyraxol-1-yl]-benzaldehyde oxime] |  |  | IC50 (recombinant PDK-1): 25 µM |
| 4-[5-(4′triflouromethyl[1,1′-biphenyl]-4-yl)-3-(trifluoromethyl)-1H-1-yl]benzenesulfonamide [Compound 51] | 8 | 18 |  |
| NS(=O)(=O)c1ccc(-n2nc(C(F)(F)F)cc2-c2ccc3c(ccc4ccccc43)c2)cc1 [Compound 59, 4-[5-(2-phenanthrenyl)-3-(trifluoromethyl)-1H-1-yl]benzenesulfonamide] |  |  | IC50 (PC-3 cells; Homo sapiens, PC-3, 24 h, 1% FBS-containing RPMI 1640 medium, read-out: dose required to induce 50% PC-3 cell death): 5 µM; IC50 (PC-3 cells; Homo sapiens, inducing apoptotic death in PC-3 cells / PC-3 cell viability, read-out: IC50 PC-3): 5 µM; direct inhibitory effect on immunoprecipitated Akt activity (immunoprecipitated Akt): Neither compound 59 nor other the other compounds displayed a direct inhibitory effect; IC50 (Akt): 5 µM; Akt dephosphorylation (Western blot) (phospho-473Ser Akt): significant Akt dephosphorylation |
| 5-(2-Phenanthrenyl)-3-(trifluoromethyl)-4-(1H-tetrazol-5-ylphenyl)-1H-pyrazole [Compound 64] | 32 | 52 |  |

Reference: patent US8541460B2, “PDK-1/Akt signaling inhibitors” (The Ohio State University, priority 2003, dated 2013)
